In one assay the test system is Salmonella typhimurium. Kind of assay: Microtiter plate dilution MIC, S. typhimurium. The note with it: ATCC14028, 24 h, 100% inhibition; for MIC: Salmonella enterica, ATCC 14028 / TYPHIMURIUM, read-out: Minimum inhibitory concentration (MIC) S.t. Type of assay: cell-based. The protocol: (§1) The microbial strains used in this study were Escherichia coli (ATCC 10798), Salmonella typhimurium (ATCC14028), Methicillin resistant Staphylococcus aureus (MRSA, Clinical isolate), Bacillus cereus (Toxigenic strain TS), and Candida albicans (ATCC 90028). Bacterial strains were stocked onto nutrient agar slant at 4 °C, and Candida albicans was stocked onto malt agar slant at 4 °C.
(§2) The microtiter plate dilution method was used to determine the MIC (minimum inhibitory concentration) of compounds under study. Sterile 96-well microplates (Nunc) were used for the assay. Stock compounds were dissolved in DMSO so that the final concentrations in micro wells were less than 1% DMSO and solvent controls were run at these concentrations. Positive controls of penicillin G and tetracycline (Oxoid, Hampshire, UK) were prepared at the following concentrations 2, 4, 8, 16, 31, 62.5, 125, and 250 μg/mL. 1% DMSO was used as a solvent control. Compounds were diluted to twice the desired initial test concentration (250 µg/mL) with Muller Hinton broth (MHB) (Oxoid). All wells, except the first were filled with MHB (50 μL). Compounds (100 μL) were added to the first well and serial two-fold dilutions were made down to the desired minimum concentration (2 μg/mL). An over-night culture of bacteria suspended in MHB was adjusted to turbidity equal to 0.5 McFarland standard. The plates were inoculated with bacterial suspension (50 μL/well) and incubated at 37 °C for 24 h. Then the turbidity was measured using micro-plate reader (Biotek) at 620 nm wavelength. The same procedure was used to determine the antifungal activity of compounds against Candida albicans. The medium used was malt extract broth. The yeast cells were suspended in 0.85% saline, with an optical density equivalent to 0.5 McFarland standard, and diluted 1:100 in malt extract broth to obtain the working concentration. After 24 h incubation with each compound, the turbidity was measured at 530 nm wavelength using a spectrophotometer (Biotek). Percentage inhibition for tested microorganisms was calculated using the following formula:
(§3) MIC was determined as the lowest concentration of the compound that causes complete inhibition (100%) of each microorganism.

In assay [1] the test system is MCF-7 cells. As to the kind of experiment: TUNEL colorimetric apoptosis assay. Type of assay: cell-based, human. The note with it: 15 µg/mL, 28 h, compared with untreated cells. The method, then: Apoptosis was detected using terminal deoxynucleotidyl transferase (TdT) mediated-16-deoxyuridine triphosphate (dUTP) Nick-End Labelling (TUNEL) system (Promega, Madison, WI, USA). MCF-7 cells cultured in 24 well plates were treated with 15 µg/mL of either 3-O-methylquercetin or 3,3′-di-O-methylquercetin for 28 h. The assay was conducted according to the manufacturer's instructions. Briefly, treated cells were fixed using 10% formalin followed by washing with phosphate buffer saline (PBS). Cells were then permeabilized using 0.2% triton X-100. Biotinylated dUTP in rTdT reaction mixture was added to label the fragmented DNA at 37 °C for one hour, followed by blocking endogenous peroxidases using 0.3% hydrogen peroxide. Streptavidin HRP (1:500 in PBS) was added and incubated at room temperature for 30 min. Finally, hydrogen peroxide and chromagen diaminobenzidine were used to visualize nuclei with fragmented DNAs under the light microscope (Novex, Arnhem, Holland). Cells treated with 40 nM vincristine sulfate were used as a positive control while untreated cells were used as a negative control.

Assay [2] relates to Bacillus cereus. As to the kind of experiment: Microtiter plate dilution MIC, B. cereus. Type of assay: cell-based. To be noted: Toxigenic strain TS, 24 h, 100% inhibition; for MIC: Bacillus cereus, read-out: Minimum inhibitory concentration (MIC) B.c. The method, then:
as §1, §2, §3

The subject of a further assay is Escherichia coli. Kind of assay: Microtiter plate dilution MIC, E. coli. Type of assay: cell-based. To be noted: ATCC 10798, 24 h, 100% inhibition; for MIC: Escherichia coli, ATCC10798, read-out: Minimum inhibitory concentration (MIC) E.c. The method, then:
as §1, §2, §3

Assay [3] concerns MCF-7 cells. Kind of assay: MTT antiproliferative activity assay, MCF-7. Type of assay: cell-based, human. The note with it: MTT, 48 h treatment, average of three replicates; for IC50: Homo sapiens, MCF7, read-out: IC50 MCF-7. The protocol: (§4) Hep-2 (larynx carcinoma, ATCC: CCL-23), MCF-7 (breast epithelial adenocarcinoma, ATCC: HTB-22), and Vero (African green monkey kidney, ATCC: CCL-81) cell lines were kindly provided by Dr. Mona Hassuneh (Department of Biological Sciences, University of Jordan). Cells were grown in Minimum Essential Medium Eagle (Gibco, Paisley UK) supplemented with 10% heat inactivated fetal bovine serum (Gibco, Paisley UK), 29 μg/mL L-glutamine, and 40 μg/mL gentamicin. Cells were incubated in a humidified atmosphere of 5% CO2 at 37 °C.
(§5) The antiproliferative activity of Inula viscosa compounds was measured using the MTT (3-(4,5-dimethylthiazol-2-yl)-2,5-diphenyltetrazolium bromide) assay (Promega, Madison, WI, USA). The assay detects the reduction of MTT by mitochondrial dehydrogenase to blue formazan product, which reflects the normal function of mitochondria and cell viability. Exponentially growing cells were washed and seeded at 17,000 cells/well for Hep-2 cell line and 11,000 cells/ well for MCF-7 cell line (in 200 μL of growth medium) in 96 well microplates (Nunc, Roskilde, Denmark). After 24 h incubation, a partial monolayer was formed then the media was removed and 200 μL of the medium containing the compound (initially dissolved in DMSO) were added and re-incubated for 48 h. Then 100 μL of the medium were aspirated and 15 μL of the MTT solution were added to the remaining medium (100 μL) in each well. After 4 h contact with the MTT solution, blue crystals were formed. One hundred μL of the stop solution were added and incubated further for 1 h.
(§6) Reduced MTT was assayed at 550 nm using a microplate reader (Biotek, Winooski, VT, USA). Control groups received the same amount of DMSO (0.1%).Untreated cells were used as a negative control while, cells treated with vincristine sulfate were used as a positive control. Eight concentrations (150, 100, 50, 20, 10, 5, 2, and 1 μg/mL) were prepared from each compound and tested against the three cell lines. IC50 values were calculated as the concentrations that show 50% inhibition of proliferation on any tested cell line. Stock solutions of the compounds were dissolved in (DMSO) then diluted with the medium and sterilized using 0.2 μm membrane filters. The toxicity of DMSO was determined and the final dilution of compounds used for treating the cells contained not more than 0.1% (non toxic concentration) DMSO. IC50 values were reported as the average of three replicates. The antiproliferative effect of the tested compounds was determined by comparing the optical density of the treated cells against the optical density of the control (cells treated with media containing 0.1% DMSO).
On the technique in general: Tetrazolium dyes change colour on reduction, which living cells bring about.

The next assay concerns Vero cells. Kind of assay: MTT antiproliferative activity assay, Vero. Type of assay: cell-based, African green monkey. To be noted: MTT, 48 h treatment, average of three replicates; for IC50: Chlorocebus sabaeus, Vero, read-out: IC50 Vero. The method, then: as §4, §5, §6
In assay [4] the test system is MCF-7 cells. As to the kind of experiment: Scanning electron microscopy of MCF-7 cells. To be noted: 15 µg/mL compound (vincristin sulfate 40 nM), 48 h. Type of assay: cell-based, human. The method, then:
MCF-7 cells were cultured in complete DMEM containing either 15 µg/mL of 3-O-methylquercetin or 3,3′-di-O-methylquercetin and incubated for 48 h in humidified CO2 incubator. Negative control cells were incubated with complete DMEM and positive control cells received complete DMEM containing 40 nM vincristin sulfate. Treated cells were fixed with 3% glutaraldehyde for 1.5 h followed by osmium tetroxide (2% in PBS) for 1 h. After fixation, cells were washed in PBS and sequentially dehydrated using 30%, 70%, and 100% ethanol. Fixed cells were attached to a metal stubs and sputter coated with platinum by using Emitech K550X coating unit (Qourum Technology, West Sussex, UK). The coated specimens were viewed using Inspect F50/FEG scanning electron microscope (FEI, Eindhoven, The Netherlands) at accelerating voltage of 2–5 kV. Bacillus cereus cells treated with 3,3′-di-O-methylquercetin for 24 h were collected by centrifugation and washed with sodium phosphate buffer. Following that, the samples were fixed in 2.5% glutaraldehyde in 0.1 M phosphate buffer, pH 7.3, at 4 °C overnight, and postfixed in 1% osmium tetroxide in the phosphate buffer for 1 h at room temperature. Bacterial cells were dehydrated with sequential ethanol concentrations (30–100%) and coated for the observations under scanning electron microscope.

For assay [5], the system named is Methicillin resistant Staphylococcus aureus (MRSA). As to the kind of experiment: Microtiter plate dilution MIC, MRSA. Type of assay: cell-based. To be noted: clinical isolate, 24 h, 100% inhibition; for MIC: Staphylococcus aureus, MRSA, read-out: Minimum inhibitory concentration (MIC) MRSA. The protocol: as §1, §2, §3
For a further assay, the system named is Hep-2 cells. As to the kind of experiment: MTT antiproliferative activity assay, Hep-2. Type of assay: cell-based. To be noted: MTT, 48 h treatment, average of three replicates; for IC50: Homo sapiens, HEp-2, read-out: IC50 Hep-2. The protocol:
as §4, §5, §6

The test system of the next assay is Candida albicans. As to the kind of experiment: Microtiter plate dilution MIC, C. albicans. The note with it: ATCC 90028, malt extract broth, 24 h, 100% inhibition; for MIC: Candida albicans, ATCC90028, read-out: Minimum inhibitory concentration (MIC) C.a. Type of assay: cell-based. The protocol:
as §1, §2, §3

Assay [6] concerns Bacillus cereus. The note with it: cited from earlier work; for MIC against Bacillus cereus: previous studies ref 31.

The values that follow come from article PMC6268972, “Antiproliferative, Antimicrobial and Apoptosis Inducing Effects of Compounds Isolated from Inula viscosa” (Molecules, 2012).

The IC50 is the concentration at which inhibition is half-maximal.

≈ marks a conversion by molar mass, not a printed value. Counter-ions that a name gives are not always drawn.

`COc1c(-c2ccc(O)c(O)c2)oc2cc(O)cc(O)c2c1=O` [3-O-Methylquercetin]: the MIC in the assay on Salmonella typhimurium is 125 µg/mL (≈ 395 µM); in the assay with Bacillus cereus [2] it was 125 µg/mL (≈ 395 µM); in the assay with Escherichia coli, over 250 µg/mL; in [5] it was over 250 µg/mL; in the assay with Candida albicans, 250 µg/mL (≈ 790 µM). The “Apoptosis induction (DNA fragmentation, TUNEL)” value in the assay on MCF-7 cells [1] is given as “increase in the number of apoptotic cells with fragmented DNA”. Further, the half-inhibitory concentration (IC50) is 11.2 ± 1.93 µg/mL (≈ 35.5 µM) in the assay with MCF-7 cells [3], over 150 µg/mL in the assay on Vero cells and 26.1 ± 2.18 µg/mL (≈ 82.6 µM) in the assay with Hep-2 cells. The “Cytomorphological alterations (scanning electron microscopy)” value in the assay with MCF-7 cells [4] was “cell shrinkage, membrane blebbing, loss of contact with neighboring cells, and formation of apoptotic bodies”.

As for `CC[C@]1(O)C[C@H]2CN(CCc3c([nH]c4ccccc34)[C@@](C(=O)OC)(c3cc4c(cc3OC)N(C=O)[C@H]3[C@@](O)(C(=O)OC)[C@H](OC(C)=O)[C@]5(CC)C=CCN6CC[C@]43[C@@H]65)C2)C1` [Vincristine sulfate, reference compound], the half-inhibitory concentration (IC50) with MCF-7 cells [3] is 10 ± 1.34 µg/mL; with Vero cells, over 90 µg/mL; with Hep-2 cells, over 90 µg/mL. The “Cytomorphological alterations (scanning electron microscopy)” value in the assay on MCF-7 cells [4] was “morphological changes similar to those observed in cells treated with either 3-O-methylquercetin or 3,3′-di-O-methylquercetin”.

Take Quercetin-3-O-glycoside: the “Inhibition of Bacillus cereus (concentration)” value in the assay with Bacillus cereus [6] (previous studies ref 32) is 50 µg/mL.

Turning to `COc1c(O)cc2oc(-c3ccc(O)c(O)c3)cc(=O)c2c1O` [Nepetin], the “Minimum inhibitory concentration (MIC) S.t” value in the assay with Salmonella typhimurium was over 250 µg/mL. The “Minimum inhibitory concentration (MIC) B.c” value in the assay with Bacillus cereus [2] is listed as over 250 µg/mL. Besides, in the assay with Escherichia coli, the “Minimum inhibitory concentration (MIC) E.c” value is over 250 µg/mL. Besides, in the assay on MCF-7 cells [3], the “IC50 MCF-7” value is recorded as 5.87 ± 1.36 µg/mL (≈ 18.6 µM). Further, the “IC50 Vero” value in the assay with Vero cells was determined as 103.54 ± 2.82 µg/mL (≈ 327 µM). In assay [5], the “Minimum inhibitory concentration (MIC) MRSA” value is 250 µg/mL (≈ 790 µM). Besides, the “IC50 Hep-2” value with Hep-2 cells stood at 11.33 ± 0.98 µg/mL (≈ 35.8 µM). Also, the “Minimum inhibitory concentration (MIC) C.a” value with Candida albicans is listed as over 250 µg/mL.

In the case of `C=C(C(=O)O)[C@@H]1CC[C@@]2(C)CCC[C@@](C)(O)[C@@H]2C1` [Ilicic acid], the MIC (in the assay with Salmonella typhimurium; in the assay with Bacillus cereus [2]; in the assay with Escherichia coli; in assay [5]; in the assay on Candida albicans) was over 250 µg/mL each time. The IC50 with MCF-7 cells [3], in the assay on Vero cells and in the assay with Hep-2 cells was over 150 µg/mL throughout.

Consider `O=c1c(O)c(-c2ccc(O)c(O)c2)oc2cc(O)cc(O)c12` [quercetin], for which, in the assay on Bacillus cereus [6], the “MIC against Bacillus cereus” value is reported as 350 µg/mL (≈ 1160 µM).

Take `C=C1C(=O)O[C@H]2CC(=C)[C@H]3CC[C@@](C)(O)[C@@H]3C[C@H]12` [Inuviscolide]: the MIC (with Salmonella typhimurium; in the assay on Bacillus cereus [2]; in the assay on Escherichia coli; in assay [5]; in the assay with Candida albicans) was over 250 µg/mL in each case. The values for the IC50 in the assay with MCF-7 cells [3], in the assay on Vero cells and in the assay on Hep-2 cells were over 150 µg/mL, over 150 µg/mL and 148.8 ± 1.25 µg/mL (≈ 599 µM), respectively.

`O=c1c(O[C@H]2OC[C@@H](O)[C@@H](O)[C@@H]2O)c(-c2ccc(O)c(O)c2)oc2cc(O)cc(O)c12` [quercetin-3-O-arabinoside]: in the assay with Bacillus cereus [6], the “MIC against Bacillus cereus” value was 350 µg/mL (≈ 806 µM).
